Measurements published in patent US11027028B2, “Manganese complexes with substituted bisphosphonates useful as imaging and therapeutic agents” (DUKE UNIVERSITY, priority 2015, dated 2021).

Columns and labels:
[1] = previously FDA-approved Mn(II) agent; cited from earlier work
[2] = In vivo MRI after i.v. administration of Mn(II) complexes; parameters: species or system mouse
Procedure: FIG. 4. A, In vivo MRI in control mouse after i.v. administration of MnNTA. B, MRI after i.v. administration of Mn:ETID ([…] of 40 mM solution).
In vivo behavior was tested of two relatively strong (log K1>7) ligands for Mn(II) chelation, nitrilotriacetic acid (NTA), closely related to EDTA, and […] (3,4-DBA).
Enhancement of the bowel is also noted but more variable, believed to represent elimination of the coordination complex from the gallbladder into the small intestine. In addition, subtle but transient T1 changes are observed in the skeletal muscles and long bones that return to normal after 30 min, paralleling the mild residual T1 changes in major vessels, consistent with a blood pool rather than local parenchymal uptake effect.

4T1 tumor = test: Dynamic contrast enhancement of 4T1 tumor after i.v. administration; format: in vivo; conditions: pilot data
Procedure: FIG. 5. Dynamic contrast enhancement of 4T1 tumor after i.v. administration of 1-hydroxybisphosphonate:Mn complex linked to HSP90 inhibitor as in Scheme 1C, 25 mg/kg. Graph on left depicts relative change in T1 enhancement in tumors after labeled drug (n=5) and after Mn:ETID complex alone (n=6).
Several synthetic strategies were used for labeling small molecule drugs either directly or via polyethyleneglycol (PEG) linkers. Two complexes, the first with a medronate analogue (Scheme IB) via the amine-terminated PEG linker and the second an etidronate analogue coupled through the COOH-terminated PEG linker (Scheme 1C), were synthesized, characterized and studied preliminarily in vivo.

SMILES: Cc1ncc(COP(=O)([O-])[O-])c(CN(CCN(CC(=O)[O-])Cc2c(COP(=O)([O-])[O-])cnc(C)c2[O-])CC(=O)[O-])c1[O-].[H+].[H+].[H+].[Mn+2].[Na+].[Na+].[Na+] [Teslascan, mangafodipir trisodium]
- In vivo distribution [1]: immediately distributed to the liver, releasing free Mn

SMILES: O=C(O)CN(CC(=O)O)CC(=O)O [NTA, nitrilotriacetic acid]
- Cardiac enhancement ([2]; after i.v. administration, indicates free Mn released into the blood pool): cardiac enhancement was also seen
- Biodistribution on in vivo MR imaging ([2]; mouse, in vivo, iv): release of free Mn and hepatocellular uptake

SMILES: Cc1nn(-c2ccc(C(N)=O)c(NCCCOCCOCCOCCOCCOCCCC(=O)NCCCC(O)(P(=O)(O)O)P(=O)(O)O)c2)c2c1C(=O)CC(C)(C)C2 [Scheme 1C]
- Enhancement in 4T1 tumors relative to paramagnetic coordination complex alone (4T1 tumor): progressive accumulation of enhancement in 4T1 tumors that is greater than what is seen for the paramagnetic coordination complex alone
